Results as given in patent US9422246B2, “Benzylidene azolidine derivative or salt thereof” (ROHTO Pharmaceutical Co., Ltd., priority 2012, dated 2016).

How the values were obtained:
[1] = UV absorbing properties (UV spectrum in ethanol); format: physicochemical; conditions: 5 ppm in ethanol, quartz cell 1 cm optical path length
Procedure: The resulting compound 1 was dissolved at a concentration of 5 ppm in ethanol as a solvent to form a sample solution. After the prepared sample solution was injected into a quartz cell (1 cm in optical path length), the UV spectrum of the sample was measured with a spectrophotometer (UV-2450 manufactured by SHIMADZU CORPORATION), in which the maximal absorption wavelength (λmax) and the absorbance at the maximal absorption wavelength were determined. When the maximal absorption wavelength falls within the ultraviolet wavelength range, the higher absorbance at the maximal absorption wavelength indicates the better UV absorbing properties.

[2] = Evaluation of hydrophilicity (solubility in test solvent); format: physicochemical; conditions: 25° C.; test solvent 10% by weight dipropylene glycol, 10% ethanol, 80% purified water
Procedure: Test solvent: A mixed solvent containing 10% by weight of dipropylene glycol, 10% by weight of ethanol, and 80% by weight of purified water (based on 100% by weight of the total amount of dipropylene glycol, ethanol, and purified water).
Based on the difference in solubility, the hydrophilicity was evaluated as follows.
Particularly high hydrophilicity: A solubility of 1.0 or more (g/100 g test solvent)
High hydrophilicity: A solubility of 0.2 to less than 1.0 (g/100 g test solvent)
Low hydrophilicity: A solubility of 0.1 to less than 0.2 (g/100 g test solvent)
No hydrophilicity: A solubility of less than 0.1 (g/100 g test solvent) or the occurrence of suspended solids

| SMILES | Absorbance at maximal absorption wavelength [1] | Maximal absorption wavelength (λmax) [1] | Solubility [2] |
| --- | --- | --- | --- |
| O=C(CCN1C(=O)NC(=Cc2ccc(OCCOCCO)cc2)C1=O)N(CCO)CCO [Compound 4, 5-[4-[2-(2-hydroxyethoxyl)ethoxy]benzylidene]-3-[3-[bis(2-hydroxyethyl)amino]-3-oxopropyl]hydantoin] | 0.34 | 338 nm | 1.5 g/100 g test solvent |
| COc1ccc(C=C2C(=O)N(CC(=O)OCCOCCO)C(=O)N2CC(=O)OCCOCCO)cc1 [Compound 7, 5-(4-methoxybenzylidene)-1,3-bis[2-[2-(2-hydroxyethoxy)ethoxy]-2-oxoethyl]hydantoin] | 0.14 | 326 nm | 25< g/100 g test solvent |
| CCCCC(CC)COC(=O)CCN1C(=O)NC(=Cc2ccc(OC)c(OC)c2)C1=O (stereo not shown) [1′, 2-ethylhexyl dimethoxybenzylidene dioxoimidazolidine propionate, reference compound] | – | – | <0.05 g/100 g test solvent |
| COc1ccc(C=C2C(=O)N(CC(=O)N(CCO)CCO)C(=O)N2CC(=O)N(CCO)CCO)cc1 [Compound 6, 5-(4-methoxybenzylidene]-1,3-bis[2-[bis(2-hydroxyethyl)amino]-2-oxoethyl]hydantoin] | 0.18 | 328 nm | 25< g/100 g test solvent |
| O=C1C(=Cc2ccc(OCCOCCOCCO)cc2)N(CCOCCOCCO)C(=O)N1CCOCCOCCO [Compound 2, 5-[4-[2-[2-(2-hydroxyethoxyl)ethoxy]ethoxy]benzylidene]-1,3-bis[2-[2-(2-hydroxyethoxyl)ethoxy]ethyl]hydantoin] | 0.12 | 325 nm | 25< g/100 g test solvent |
| O=C(COc1ccc(C=C2NC(=O)N(CC(=O)OCCOCCO)C2=O)cc1)OCCOCCO [Compound 5, 5-[4-[2-[2-(2-hydroxyethoxyl)ethoxy]-2-oxoethoxy]benzylidene]-3-[2-[2-(2-hydroxyethoxyl)ethoxy]-2-oxoethyl]hydantoin] | 0.20 | 335 nm | 0.2 g/100 g test solvent |
| O=C(COc1ccc(C=C2NC(=O)N(CC(=O)N(CCO)CCO)C2=O)cc1)N(CCO)CCO [Compound 3, 5-[4-[2-[bis(2-hydroxyethyl)amino]-2-oxoethoxy]benzylidene]-3-[2-[bis(2-hydroxyethyl)amino]-2-oxoethyl]hydantoin] | 0.30 | 336 nm | 1.2 g/100 g test solvent |
| O=C1NC(=Cc2ccc(OCCOCCO)cc2)C(=O)N1CCOCCO [Compound 1, 5-[4-[2-(2-hydroxyethoxyl)ethoxy]benzylidene]-3-[2-(2-hydroxyethoxyl)ethyl]hydantoin] | 0.43 | 335 nm | 2.0 g/100 g test solvent |
